The results in this text go back to patent US8399681B2, “Substituted aminothiazolone indazoles as estrogen related receptor-alpha modulators” (Janssen Pharmaceutica NV, priority 2009, dated 2013).

The experiment concerns the target T1, ERR1 (also known as ERR-α or ERR-1) (Homo sapiens, UniProt P11474).
T1 sequence (P11474 193-421 limits assumed): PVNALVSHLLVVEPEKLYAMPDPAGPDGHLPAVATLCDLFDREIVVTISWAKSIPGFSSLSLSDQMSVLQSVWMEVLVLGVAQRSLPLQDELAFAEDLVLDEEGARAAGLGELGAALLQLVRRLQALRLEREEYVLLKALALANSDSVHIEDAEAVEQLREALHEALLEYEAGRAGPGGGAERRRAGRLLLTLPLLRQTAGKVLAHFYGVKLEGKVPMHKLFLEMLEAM
The experiment can be described thus: TR-FRET assay (disruption of co-activator peptide binding). In kind it is biochemical. The settings on record: 6His-tagged ERR1 LBD, GST-hSRC2 co-activator polypeptide; average of 3 independent experiments. In outline:
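Compound-induced loss of co-activator recruitment, read by time-resolved FRET (excitation 340 nm; 615 and 665 nm emission) after 4-18 h at 25 °C. Reagents: 6 nM ERR1LBD, 6 nM GST-SRC-2, 30 nM Eu cryptate, 7.5 nM XL665, pH 8 Tris buffer. Values: hyperbolic fits averaged over 3 independent runs.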

pEC50: −log10 of the molar value.

For orientation: pEC50 means −log10 of the EC50, conventionally taken in molar units. Read a high pEC50 as a small EC50. Consider `COC[C@@H]1CN(C2=NC(=O)/C(=C/c3ccc4c(cnn4Cc4ccc(C(F)(F)F)cc4C(F)(F)F)c3)S2)CCN1` [Example 211, 5-({1-[2,4-Bis(trifluoromethyl)benzyl]-1H-indazol-5-yl}methylidene)-2-[3-(S)-(methoxymethyl)piperazin-1-yl]-1,3-thiazol-4(5H)-one], for which the negative logarithm of the EC50 (pEC50) is 7.51. In turn, `O=C1N=C(N2CCO[C@H](CO)C2)S/C1=C\c1ccc2c(cnn2Cc2ccc(Cl)cc2C(F)(F)F)c1` [Example 212, 5-({1-[4-Chloro-2-(trifluoromethyl)benzyl]-1H-indazol-5-yl}methylidene)-2-[2-(S)-(hydroxymethyl)morpholin-4-yl]-1,3-thiazol-4(5H)-one] gave a negative logarithm of the EC50 (pEC50) of 7.70. `O=C1N[C@@H]2C[C@H](CO1)N(C1=NC(=O)/C(=C/c3ccc4c(cnn4Cc4ccc(C(F)(F)F)cc4C(F)(F)F)c3)S1)C2` [Example 214, (1R,6R)-7-[5-({1-[2,4-Bis(trifluoromethyl)benzyl]-1H-indazol-5-yl}methylidene)-4-oxo-4,5-dihydro-1,3-thiazol-2-yl]-4-oxa-2,7-diazabicyclo[4.2.1]nonan-3-one] showed a negative-log EC50 (pEC50) of 8.10. `O=C1N=C(N2CCN(C(=O)C3CC3)[C@@H](CO)C2)S/C1=C\c1ccc2c(cnn2Cc2ccc(C(F)(F)F)cc2C(F)(F)F)c1` [Example 215, 5-({1-[2,4-Bis(trifluoromethyl)benzyl]-1H-indazol-5-yl}methylidene)-2-[4-(cyclopropylcarbonyl)-3-(R)-(hydroxymethyl)piperazin-1-yl]-1,3-thiazol-4(5H)-one]: the pEC50 is 7.32.

Take `COC(=O)N1CCN(C2=NC(=O)/C(=C/c3ccc4c(cnn4Cc4ccc(C(F)(F)F)cc4C(F)(F)F)c3)S2)C[C@@H]1CO` [Example 216, Methyl 4-[5-({1-[2,4-bis(trifluoromethyl)benzyl]-1H-indazol-5-yl}methylidene)-4-oxo-4,5-dihydro-1,3-thiazol-2-yl]-2-(R)-(hydroxymethyl)piperazine-1-carboxylate]: the pEC50 is 7.82. `N#Cc1nn(Cc2ccc(C(F)(F)F)cc2C(F)(F)F)c2ccc(/C=C3\SC(N4CCN[C@@H](CO)C4)=NC3=O)cc12` [Example 217, 1-[2,4-Bis(trifluoromethyl)benzyl]-5-({2-[3-(R)-(hydroxymethyl)piperazin-1-yl]-4-oxo-1,3-thiazol-5(4H)-ylidene}methyl)-1H-indazole-3-carbonitrile]: the pEC50 was 7.57. As for `N#Cc1nn(Cc2ccc(C(F)(F)F)cc2C(F)(F)F)c2ccc(/C=C3\SC(N4CCN[C@H](CO)C4)=NC3=O)cc12` [Example 218, 1-[2,4-Bis(trifluoromethyl)benzyl]-5-({2-[3-(S)-(hydroxymethyl)piperazin-1-yl]-4-oxo-1,3-thiazol-5(4H)-ylidene}methyl)-1H-indazole-3-carbonitrile], the pEC50 was 7.44. For `CN1CCN(C2=NC(=O)/C(=C/c3ccc4c(cnn4Cc4ccc(C(F)(F)F)cc4C(F)(F)F)c3)S2)CC1(C)C` [Example 219, 5-({1-[2,4-Bis(trifluoromethyl)benzyl]-1H-indazol-5-yl}methylidene)-2-(3,3,4-trimethylpiperazin-1-yl)-1,3-thiazol-4(5H)-one] the value was 7.64. `CC(C)(C)NC(=O)[C@@H]1CN(C2=NC(=O)/C(=C/c3ccc4c(cnn4Cc4ccc(C(F)(F)F)cc4C(F)(F)F)c3)S2)CCN1` [Example 220, 4-[5-({1-[2,4-Bis(trifluoromethyl)benzyl]-1H-indazol-5-yl}methylidene)-4-oxo-4,5-dihydro-1,3-thiazol-2-yl]-N-tert-butylpiperazine-2-(S)-carboxamide] gave a pEC50 of 7.67. Regarding `CN1CCN(C2=NC(=O)/C(=C/c3ccc4c(cnn4Cc4ccc(Cl)cc4C(F)(F)F)c3)S2)CC1(C)C` [Example 221, 5-({1-[4-Chloro-2-(trifluoromethyl)benzyl]-1H-indazol-5-yl}methylidene)-2-(3,3,4-trimethylpiperazin-1-yl)-1,3-thiazol-4(5H)-one], the pEC50 was 8.15.

For the compound `CN1CCN(C2=NC(=O)/C(=C/c3ccc4c(c3)c(C#N)nn4Cc3ccc(Cl)cc3C(F)(F)F)S2)CC1(C)C` [Example 222, 1-[4-Chloro-2-(trifluoromethyl)benzyl]-5-{[4-oxo-2-(3,3,4-trimethylpiperazin-1-yl)-1,3-thiazol-5(4H)-ylidene]methyl}-1H-indazole-3-carbonitrile], the pEC50 was 7.70. `N#Cc1nn(Cc2ccc(Cl)cc2C(F)(F)F)c2ccc(/C=C3\SC(N4CCN(CC5CC5)CC4)=NC3=O)cc12` [Example 224, 1-[4-Chloro-2-(trifluoromethyl)benzyl]-5-({2-[4-(cyclopropylmethyl)piperazin-1-yl]-4-oxo-1,3-thiazol-5(4H)-ylidene}methyl)-1H-indazole-3-carbonitrile]: the negative logarithm of the EC50 (pEC50) is 7.15. `O=C1N=C(N2C[C@H](O)[C@@H](N3CCOCC3)C2)S/C1=C\c1ccc2c(cnn2Cc2ccc(C(F)(F)F)cc2C(F)(F)F)c1` [Example 225, (5Z)-5-({1-[2,4-Bis(trifluoromethyl)benzyl]-1H-indazol-5-yl}methylidene)-2-[(3S,4S)-3-hydroxy-4-morpholin-4-ylpyrrolidin-1-yl]-1,3-thiazol-4(5H)-one] gave a pEC50 of 7.74. In turn, `CNC(=O)[C@H]1CN(C2=NC(=O)/C(=C/c3ccc4c(cnn4Cc4ccc(Cl)cc4C(F)(F)F)c3)S2)CCN1` [Example 226, (2R)-4-[5-({1-[4-Chloro-2-(trifluoromethyl)benzyl]-1H-indazol-5-yl}methylidene)-4-oxo-4,5-dihydro-1,3-thiazol-2-yl]-N-methylpiperazine-2-carboxamide] gave a pEC50 of 8.10. For `CNC(=O)[C@H]1CN(C2=NC(=O)/C(=C/c3ccc4c(cnn4Cc4ccc(C(F)(F)F)cc4C(F)(F)F)c3)S2)CCN1` [Example 227, (2R)-4-[5-({1-[2,4-Bis(trifluoromethyl)benzyl]-1H-indazol-5-yl}methylidene)-4-oxo-4,5-dihydro-1,3-thiazol-2-yl]-N-methylpiperazine-2-carboxamide] the value was 7.82; for `CC(C)(C)NC(=O)[C@@H]1CN(C2=NC(=O)/C(=C/c3ccc4c(cnn4Cc4ccc(Cl)cc4C(F)(F)F)c3)S2)CCN1` [Example 228, (2S)—N-tert-Butyl-4-[5-({1-[4-chloro-2-(trifluoromethyl)benzyl]-1H-indazol-5-yl}methylidene)-4-oxo-4,5-dihydro-1,3-thiazol-2-yl]piperazine-2-carboxamide], 7.59; for `CC(C)(O)c1ccc(Cn2ncc3cc(/C=C4\SC(N5CCN[C@@H](CO)C5)=NC4=O)ccc32)c(Cl)c1` [Example 229, 5-({1-[2-Chloro-4-(1-hydroxy-1-methylethyl)benzyl]-1H-indazol-5-yl}methylidene)-2-[3-(R)-(hydroxymethyl)piperazin-1-yl]-1,3-thiazol-4(5H)-one], 6.24. For the compound `C=C(C)c1ccc(Cn2ncc3cc(/C=C4\SC(N5CCN[C@@H](CO)C5)=NC4=O)ccc32)c(Cl)c1` [Example 230, 5-({1-[2-Chloro-4-(1-methylethenyl)benzyl]-1H-indazol-5-yl}methylidene)-2-[3-(R)-(hydroxymethyl)piperazin-1-yl]-1,3-thiazol-4(5H)-one], the pEC50 was 6.87. For `CC(C)(O)c1ccc(Cn2ncc3cc(/C=C4\SC(N5CCO[C@@H](CO)C5)=NC4=O)ccc32)c(Cl)c1` [Example 231, 5-({1-[2-Chloro-4-(1-hydroxy-1-methylethyl)benzyl]-1H-indazol-5-yl}methylidene)-2-[2-(R)-(hydroxymethyl)morpholin-4-yl]-1,3-thiazol-4(5H)-one] the value was 6.31; for `CN1CCN(C2=NC(=O)/C(=C/c3ccc4c(cnn4Cc4ccc(C(C)(C)O)cc4Cl)c3)S2)CC1` [Example 232, 5-({1-[2-Chloro-4-(1-hydroxy-1-methylethyl)benzyl]-1H-indazol-5-yl}methylidene)-2-(4-methylpiperazin-1-yl)-1,3-thiazol-4(5H)-one], 6.10. In turn, `C[C@@H]1CN(C2=NC(=O)/C(=C/c3ccc4c(cnn4Cc4ccc(C(C)(C)O)cc4Cl)c3)S2)C[C@H](C)N1` [Example 233, 5-({1-[2-Chloro-4-(1-hydroxy-1-methylethyl)benzyl]-1H-indazol-5-yl}methylidene)-2-(3,5-(cis)-dimethylpiperazin-1-yl)-1,3-thiazol-4(5H)-one] showed a pEC50 of 6.90. With `COC[C@@H]1CN(C2=NC(=O)/C(=C/c3ccc4c(cnn4Cc4ccc(C(F)(F)F)cc4C(F)(F)F)c3)S2)CCO1` [Example 234, 5-({1-[2,4-Bis(trifluoromethyl)benzyl]-1H-indazol-5-yl}methylidene)-2-[2-(S)-(methoxymethyl)morpholin-4-yl]-1,3-thiazol-4(5H)-one], the negative-log EC50 (pEC50) was 7.80. For `COC[C@@H]1CN(C2=NC(=O)/C(=C/c3ccc4c(cnn4Cc4ccc(Cl)cc4C(F)(F)F)c3)S2)CCO1` [Example 235, 5-({1-[4-Chloro-2-(trifluoromethyl)benzyl]-1H-indazol-5-yl}methylidene)-2-[2-(S)-(methoxymethyl)morpholin-4-yl]-1,3-thiazol-4(5H)-one] the value was 8.30; for `COC[C@@H]1CN(C2=NC(=O)/C(=C/c3ccc4c(cnn4Cc4ccc(O)cc4C(F)(F)F)c3)S2)CCO1` [Example 236, 5-({1-[4-Hydroxy-2-(trifluoromethyl)benzyl]-1H-indazol-5-yl}methylidene)-2-[2(S)-(methoxymethyl)morpholin-4-yl]-1,3-thiazol-4(5H)-one], 8.52. For `O=C1N=C(N2CCO[C@@H](CO)C2)S/C1=C\c1ccc2c(cnn2Cc2ccc(Br)cc2C(F)(F)F)c1` [Example 237] the value was 8.22.
